We go through one substance from US20260250337A1, “HYBRID ANTIMICROBIAL PEPTIDES” (UNIVERSIDADE FEDERAL DO ABC, priority 2023, published 2026).

For series [1] the following is noted: at 100 μmol L^−1; cited from earlier work.
The subject of series [2] is MCF-7 human breast cancer cells. The series can be described thus: Anticancer activity, MTT assay. It is filed as cell-based. To be noted: incubation time not stated. On the procedure: The anticancer activity assays were performed using MCF-10A human breast epithelial cells and MCF-7 mammary cancer cells as previously described by Pedron et al. 86. Briefly, the day before treatment, the cells were incubated at 37° C. and 5% CO2 for 24 h. The cells were treated with peptides ranging from 12.5 to 100 μmol L^−1 (MCF10-A cells) and 0.8 to 100 μmol L^−1 (MCF-7 cells) for 4 h and 24 h at 37° C., and cell viability was measured using 3-(4,5-Dimethylthiazol-2-yl)-2,5-diphenyltetrazolium bromide (MTT) assays 87. Three independent replicates were performed in each case.
Background: Formazan colour is commonly taken as a measure of viable cells.

The next series relates to human erythrocytes. The series can be described thus: Hemolytic activity assay. The class given is cell-based. The note with it: human erythrocytes, 1 h. The method, then:
Method. Assays against freshly collected human erythrocytes were performed following protocols described by Pedron et al. 62. Briefly, peptide aliquots at concentrations ranging from 0.1 to 100 μmol L−1 were incubated with a suspension of erythrocytes at room temperature for 1 h. The samples were then centrifuged, and the absorbance of the supernatant was measured at 405 nm. The MHC (maximal non-hemolytic concentration) was determined as the maximal concentration at which 100% of the erythrocytes were viable. The surfactant SDS and PBS buffer were used as positive88, 89 and negative controls, respectively. Sodium heparin was used as an anticoagulant when collecting human blood. Three biological repeats were performed.

Series [3] relates to S. epidermidis ATCC 12228. The series can be described thus: Liquid growth inhibition assay, MIC. The class given is cell-based. To be noted: 37° C., 18 h.
A further series relates to M. luteus A270. The series can be described thus: Liquid growth inhibition assay, MIC. The class given is cell-based, Micrococcus luteus. The note with it: 37° C., 18 h. The method, then:
(§1) Initially, the antimicrobial activity was determined by liquid growth inhibition assays, as previously described by Pedron et al.^62. Briefly, Peptone Broth and Potato Dextrose Broth (Invitrogen) were used for antibacterial and antifungal assays, respectively. Two-fold serial dilutions of peptides (0.09-50 μmol L^−1) and microorganisms (Serratia marcescens ATCC 4112, Enterobacter cloacae β-12, Micrococcus luteus A270, Bacillus megaterium ATCC 10778, Bacillus subtilis ATCC 6633, Candida albicans MDM8, and Candida tropicalis IOC 4560) were incubated at 37° C. for 18 h (for bacteria) or 24 h (for fungi), and microbial growth was assessed by absorbance measurements at 595 nm. Experiments were performed in three biological repeats.

The nature of series [4]: Circular dichroism, helical fraction (Lifson-Roig). The note with it: peptide 50 μmol L^−1. It is filed as physicochemical. On the procedure:
Method. Circular dichroism (CD) assays were performed with a Spectropolarimeter Jasco Mod. J-815 (JascoCorp). CD spectra were obtained in Far-UV (195-260 nm), and analyzed in the following solutions: water, 2,2,2-trifluoroethanol (TFE) in water (3:2, v:v), phosphate buffer saline (PBS, 10 mmol L^−1, pH 7.4), sodium dodecyl sulfate (SDS 20 mmol L^−1) in water, palmitoyloleoylphosphatidylcholine (POPC; 10 mmol L^−1), palmitoyloleoylphosphatidylcholine:dioleylphosphatidylethanolamine (POPC:DOPE; 3:1, mol:mol, 10 mmol L^−1) and palmitoyloleoylphosphatidylcholine:palmitoyloleoylphosphatidylglycerol (POPC:POPG; 3:1, mol:mol, 10 mmol L^−1) at a peptide concentration of 50 μmol L^−1. These experiments were performed as described in detail by Pedron et al.^62.

The next series has as its system B. megaterium ATCC 10778. The series can be described thus: Liquid growth inhibition assay, MIC. It is filed as cell-based, Bacillus megaterium. The note with it: 37° C., 18 h. On the procedure: as §1
A short description of series [5]: Resistance to degradation in fetal bovine serum. It is filed as in vitro ADME. To be noted: bovine, fetal bovine serum, 25% in water, fetal bovine serum 25% in water, 37° C. The method, then: The resistance to proteolytic degradation of the hybrid peptides was assessed by exposing them for 6 h to serum peptidases in a fetal bovine serum solution^68, 69 (FIG. 5a and Table S4). The peptide degradation kinetics were calculated by integrating the peak area of the peak in relation to the peptide at the beginning of the experiment (time=0) and comparing it to the integrated peak area relative to the peptides after exposure to the enzymes at time points: 0.5, 1, 2, 4, and 6 h (FIG. 5a and Table S4). […] However, AV was resistant to degradation against proteases, with almost 40% peptide content remaining after 4 h of exposure (FIG. 5a and Table S4). […] VP was almost entirely degraded after 30 min (22% of peptide remaining). […] D-amino acid substitutions have been used as alternatives to prevent the degradation of AMPs. For example, Qiu et. al. described a protonectin analog with a D-Lys residue in position 10 as an alternative to protonectin; this analog is not degraded and has higher antimicrobial activity against bacteria and fungi than the original peptide.
Methods. Stability assays were performed following the protocol described by Torres et al.^71. Briefly, a peptide solution was added to GIBCO fetal bovine serum diluted to 25% in water and kept at 37° C. The degradation kinetics were monitored by liquid chromatography and the percentage of peptide remaining was calculated by integrating the peptide peak area. The experiments were performed as three independent replicates, and aliquots were taken at 0, 0.5, 1, 2, 4, and 6 h.

Series [6] has as its system Plasmodium gallinaceum sporozoites. The series can be described thus: Antiplasmodial activity, fluorescence microscopy. The class given is cell-based. The method, then: Method. The activity of the peptides against Plasmodium gallinaceum sporozoites was determined by fluorescence microscopy, as previously described by Silva et. al.^83. Briefly, 9,000 sporozoites were isolated from the glands of infected Aedes aegypti mosquitos and incubated with serially diluted peptides (ranging from 0.1 to 1.6 μmol L^−1) at 37° C. for 1 h. A PBS solution and the surfactant digitonin^84, 85 were used as negative and positive controls, respectively. Propidium iodide was used to stain dead cells. Assays were executed using fluorescence microscopy. Three biological repeats each with three different mosquito batches (n=9) were used.

The next series deals with C. albicans MDM8. Nature of the series: Liquid growth inhibition assay, MIC (antifungal). The class given is cell-based, Candida albicans. To be noted: 37° C., 24 h. On the procedure: as §1
In another series the test system is C. tropicalis IOC 4560. The series can be described thus: Liquid growth inhibition assay, MIC (antifungal). It is filed as cell-based, Candida tropicalis. The note with it: 37° C., 24 h. The method, then: as §1
A further series deals with E. cloacae β-12. Nature of the series: Liquid growth inhibition assay, MIC. It is filed as cell-based, Enterobacter cloacae. To be noted: 37° C., 18 h. The method, then: as §1
The subject of another series is S. marcescens ATCC 4112. Nature of the series: Liquid growth inhibition assay, MIC. The class given is cell-based, Serratia marcescens. To be noted: 37° C., 18 h. On the procedure: as §1

By fraction remaining is commonly meant what is left of the initial amount, in per cent.

Entries after “also recorded” stand apart in the source; their conditions may differ. No end group written: not given here. Where only a bound is given, the exact number is not on record here.

With “SLLSLIRKLIT-NH2 [Decoralin, Ser-Leu-Leu-Ser-Len-Ile-Arg-Lys-Leu-Ile-Thr, reference compound]”, the “hemolytic activity of decoralin” value in series [1] is listed as “low hemolytic activity”. In addition, the “concentration with activity against MCF-7 human breast cancer cells” value in series [2] was 50 µmol/L. Also, the “Hemolytic activity, concentration of peptide needed to kill 10% of red blood cells” value in the series with human erythrocytes came to 1.6 µmol/L. Moreover, the MHC in the series with human erythrocytes (room temperature, concentration with approximately 0% of hemolytic activity) was 1.6 µmol/L. The “MIC S. epidermidis ATCC 12228” value in [3] turned out to be 6.3 µM. The “MIC M. luteus A270” value in the series on M. luteus A270 stood at 0.8 µM. Moreover, the “Helical fraction (fH) PBS” value in series [4] (PBS 10 mmol L^−1, pH 7.4) came to 0.06. The “Helical fraction (fH) POPC” value in series [4] (POPC 10 mmol L^−1) is recorded as 0.23. The “Helical fraction (fH) POPC:DOPE” value in series [4] (POPC:DOPE 3:1, mol:mol, 10 mmol L^−1) is listed as 0.19. The “Helical fraction (fH) POPC:POPG” value in series [4] (POPC:POPG 3:1, mol:mol, 10 mmol L^−1) turned out to be 0.40. The “Helical fraction (fH) SDS” value in [4] (SDS 20 mmol L^−1 in water) is given as 0.22. Moreover, the “Helical fraction (fH) TFE/Water” value in series [4] (TFE in water (3:2, v:v)) is on record as 0.29. The “Helical fraction (fH) Water” value in series [4] (water) stood at 0.05. In the series with B. megaterium ATCC 10778, the “MIC B. megaterium ATCC 10778” value stood at 1.6 µM. For the same substance, the share remaining at 0.5 h in series [5] (30 min, read-out: remaining peptide, 30 min) is around 70%. For the same substance, the fraction remaining at 1 h in series [5] (1 h, read-out: remaining peptide, 1 h) is below 30%. In addition, the amount remaining at 2 h in [5] (2 h, read-out: remaining peptide, 2 h) was below 30%. For the same substance, in series [6] (0.8 μmol L^−1, fluorescent (propidium iodide stained) sporozoites, 37° C., 1 h), the “P. gallinaceum (% sporozoites at 0.8 μmol L^−1)” value worked out at 0%. The “antiplasmodial activity” value in [6] (P. gallinaceum sporozoites, concentration range tested) is on record as “no activity; also recorded: did not present antiplasmodial activity”. The “MIC C. albicans MDM8” value against C. albicans MDM8 was found to be 0.8 µM. The “MIC C. tropicalis IOC 4560” value against C. tropicalis IOC 4560 worked out at 1.6 µM. The “MIC E. cloacae β-12” value against E. cloacae β-12 turned out to be 6.3 µM. Also, the “MIC S. marcescens ATCC 4112” value against S. marcescens ATCC 4112 turned out to be 3.1 µM.
